Experimental data reported in PubChem BioAssay (NCI).
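Test compounds were applied to cells in 96-well plates for 48 hours at 5 doses. TGI marks complete inhibition of growth.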

Assays:
Assay in all cases: inhibition of tumour cell growth, NCI panel, 48 h
UO-31 renal = system: UO-31 renal
NCI-H23 lung = system: NCI-H23 lung
SW-620 colon = system: SW-620 colon
HCT-15 colon = system: HCT-15 colon
NCI-H522 lung = system: NCI-H522 lung
SNB-75 CNS = system: SNB-75 CNS
OVCAR-5 ovarian = system: OVCAR-5 ovarian
MDA-MB-231 breast = system: MDA-MB-231 breast
HOP-62 NSCLC = system: HOP-62 NSCLC
MCF7 breast = system: MCF7 breast
SK-MEL-28 melanoma = system: SK-MEL-28 melanoma
OVCAR-3 ovarian = system: OVCAR-3 ovarian
HS 578T breast = system: HS 578T breast
HCC-2998 colon = system: HCC-2998 colon
EKVX NSCLC = system: EKVX NSCLC
SF-295 CNS = system: SF-295 CNS
NCI-H226 lung = system: NCI-H226 lung
SK-OV-3 ovarian = system: SK-OV-3 ovarian
NCI/ADR-RES ovarian = system: NCI/ADR-RES ovarian
SK-MEL-2 melanoma = system: SK-MEL-2 melanoma
KM12 colon = system: KM12 colon
NCI-H460 lung = system: NCI-H460 lung
CCRF-CEM leukemia = system: CCRF-CEM leukemia
HOP-92 NSCLC = system: HOP-92 NSCLC
K-562 leukemia = system: K-562 leukemia
U251 CNS = system: U251 CNS
SF-268 CNS = system: SF-268 CNS
SK-MEL-5 melanoma = system: SK-MEL-5 melanoma
MDA-N = system: MDA-N
T-47D breast = system: T-47D breast
A498 renal = system: A498 renal
SR leukemia = system: SR leukemia
A549 NSCLC = system: A549 NSCLC
BT-549 breast = system: BT-549 breast
LOX IMVI melanoma = system: LOX IMVI melanoma
SF-539 CNS = system: SF-539 CNS
DU-145 prostate = system: DU-145 prostate
PC-3 prostate = system: PC-3 prostate
SNB-19 CNS = system: SNB-19 CNS
HT29 colon = system: HT29 colon
M14 melanoma = system: M14 melanoma
OVCAR-4 ovarian = system: OVCAR-4 ovarian
IGROV1 ovarian = system: IGROV1 ovarian
MDA-MB-435 = system: MDA-MB-435
UACC-62 melanoma = system: UACC-62 melanoma
786-0 renal = system: 786-0 renal
COLO 205 colon = system: COLO 205 colon
HCT-116 colon = system: HCT-116 colon
ACHN renal = system: ACHN renal
TK-10 renal = system: TK-10 renal
HL-60(TB) leukemia = system: HL-60(TB) leukemia
MALME-3M melanoma = system: MALME-3M melanoma
OVCAR-8 ovarian = system: OVCAR-8 ovarian
SN12C renal = system: SN12C renal
CAKI-1 renal = system: CAKI-1 renal
UACC-257 melanoma = system: UACC-257 melanoma
RPMI-8226 leukemia = system: RPMI-8226 leukemia
MOLT-4 leukemia = system: MOLT-4 leukemia
RXF 393 renal = system: RXF 393 renal

Measured: TGI

COc1cc2ccc(C(=O)NCCCNC(=O)c3ccc4cc(OC)c(OC)cc4c3)cc2cc1OC
95.8 µM: SNB-75 CNS
not listed: RPMI-8226 leukemia | MOLT-4 leukemia | RXF 393 renal
> 100 µM: all other assays above

O=[N+]([O-])c1cccc(/C=N/NC2=CS(=O)(=O)C=C2)c1
not listed: HCC-2998 colon
> 100 µM: all other assays above

Cc1ccc(S(=O)(=O)N2C[C@@H]3CC[C@]4(CO[Si](C)(C)C(C)(C)C)N[C@@H](c5ccccc5)[C@H]2[C@H]34)cc1
57.1 µM: NCI-H226 lung
58.8 µM: COLO 205 colon
28.7 µM: HOP-92 NSCLC
87.8 µM: BT-549 breast
46.8 µM: RPMI-8226 leukemia
42.6 µM: HT29 colon
93.8 µM: UACC-257 melanoma
76.2 µM: SN12C renal
52.6 µM: T-47D breast
53.1 µM: RXF 393 renal
46.3 µM: MALME-3M melanoma
30.6 µM: SK-MEL-5 melanoma
50.5 µM: HCC-2998 colon
not listed: SNB-75 CNS
> 100 µM: all other assays above
